pEC50: −log10 of the molar value.

The assay concerns the target T1, α4β7 integrin (Homo sapiens, UniProt P13612+P26010).
T1 construct: monitoring the capture of α4β7 integrin expressing cells on a recombinant MadCAM-1 extracellular domain-coated plate; endogenous in cells; host or cells: RPMI8866 cells
T1 sequence (P13612 34-1032): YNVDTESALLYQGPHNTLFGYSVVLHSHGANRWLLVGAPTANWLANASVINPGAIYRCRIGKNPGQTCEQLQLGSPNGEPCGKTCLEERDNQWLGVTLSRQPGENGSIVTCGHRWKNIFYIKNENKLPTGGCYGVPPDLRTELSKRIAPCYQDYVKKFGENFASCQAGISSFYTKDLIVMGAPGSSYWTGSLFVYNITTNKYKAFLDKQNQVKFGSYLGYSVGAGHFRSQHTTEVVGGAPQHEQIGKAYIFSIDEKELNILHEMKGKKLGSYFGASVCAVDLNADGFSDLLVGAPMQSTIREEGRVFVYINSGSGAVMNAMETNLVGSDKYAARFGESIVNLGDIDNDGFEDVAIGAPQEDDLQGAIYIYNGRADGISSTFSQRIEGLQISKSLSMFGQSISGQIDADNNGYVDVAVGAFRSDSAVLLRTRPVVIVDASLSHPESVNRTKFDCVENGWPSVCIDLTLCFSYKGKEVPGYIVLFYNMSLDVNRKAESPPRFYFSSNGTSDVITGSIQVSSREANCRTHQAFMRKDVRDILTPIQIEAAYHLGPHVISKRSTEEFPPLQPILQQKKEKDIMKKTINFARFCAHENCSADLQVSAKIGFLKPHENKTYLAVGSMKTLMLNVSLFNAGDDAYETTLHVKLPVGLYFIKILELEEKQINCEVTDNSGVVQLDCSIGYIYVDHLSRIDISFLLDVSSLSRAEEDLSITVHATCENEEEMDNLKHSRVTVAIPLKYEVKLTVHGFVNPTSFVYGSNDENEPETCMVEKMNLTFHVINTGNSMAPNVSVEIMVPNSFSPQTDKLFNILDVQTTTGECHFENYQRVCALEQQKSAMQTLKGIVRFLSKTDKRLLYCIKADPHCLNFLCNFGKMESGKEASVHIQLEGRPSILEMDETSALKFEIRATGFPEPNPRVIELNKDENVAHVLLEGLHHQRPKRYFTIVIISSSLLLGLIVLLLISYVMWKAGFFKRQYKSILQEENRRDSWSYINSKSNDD
T1 sequence (P26010 20-798): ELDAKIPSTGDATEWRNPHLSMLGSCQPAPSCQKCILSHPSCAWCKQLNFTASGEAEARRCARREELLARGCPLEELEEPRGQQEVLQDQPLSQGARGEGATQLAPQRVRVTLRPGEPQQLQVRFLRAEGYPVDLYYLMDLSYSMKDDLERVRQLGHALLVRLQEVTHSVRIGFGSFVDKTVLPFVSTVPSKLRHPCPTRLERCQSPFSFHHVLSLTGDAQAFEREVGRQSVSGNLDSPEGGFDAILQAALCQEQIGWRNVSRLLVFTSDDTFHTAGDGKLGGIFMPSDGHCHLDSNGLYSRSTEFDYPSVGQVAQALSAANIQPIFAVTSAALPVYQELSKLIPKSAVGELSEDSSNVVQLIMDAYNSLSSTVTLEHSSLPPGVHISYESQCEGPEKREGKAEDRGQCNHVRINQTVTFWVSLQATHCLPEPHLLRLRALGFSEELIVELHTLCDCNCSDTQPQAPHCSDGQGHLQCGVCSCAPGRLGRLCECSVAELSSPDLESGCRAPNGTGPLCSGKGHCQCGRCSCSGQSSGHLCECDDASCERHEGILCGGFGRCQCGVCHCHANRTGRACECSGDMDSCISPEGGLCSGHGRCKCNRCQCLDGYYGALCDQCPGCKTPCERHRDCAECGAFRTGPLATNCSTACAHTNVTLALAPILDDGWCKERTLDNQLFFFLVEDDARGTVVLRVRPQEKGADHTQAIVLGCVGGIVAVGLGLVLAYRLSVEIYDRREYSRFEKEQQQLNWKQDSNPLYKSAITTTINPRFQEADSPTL
The assay can be described thus: α4β7 Integrin Cell Capture Assay. The assay is classed as cell-based. The following applies: capture of α4β7 integrin expressing RPMI8866 cells on recombinant MadCAM-1 extracellular domain-coated plate; DMEM+0.5% FBS+0.5 mM MnCl2; read-out: EC50 α4β7. The method, then:
α4β7 Integrin Cell Capture Assay
The potency of inhibitors in preventing α4β7 integrin interaction with MadCAM-1 was measured by monitoring the capture of α4β7 integrin expressing cells on a recombinant MadCAM-1 extracellular domain-coated plate.
384-Well plates (Corning 3702) were coated with MadCAM-1 extracellular domain by dispensing 20 μL of MAdCAM-1 at 1.0 μg/mL per well and incubating overnight at 4° C. The plates were then washed with PBS and blocked with 3% BSA for 2 hours before being washed again.
RPMI8866 cells were spun down and re-suspended in assay medium (DMEM+0.5% FBS+0.5 mM MnCl2) at a density of 0.5×10^6 cells/mL. The cells were then dispensed (60 μL/well) to a 384-well plate (Greiner 781280) that was previously spotted with 60 nL of test compound per well. The plates were incubated at 37° C. for 1 hour. 50 μL of cells were transferred to the blocked, MadCAM-1-coated plates and incubated for 30 minutes at 37° C. 10 μL of 12% glutaraldehyde containing Hoechst 33342 (0.06 mg/mL) was added to the cells (2% glutaraldehyde and 0.01 mg/mL final concentrations). The plates were incubated for 90 minutes at room temperature. The plates were then washed 3 times with 70 μL of PBS per well and imaged on a Cellomics ArrayScan instrument. The cells that were bound to the plate were counted and plotted against the compound concentration to determine the EC50 of the test compounds.
On to `CCOCc1cc(OC)c(-c2ccc(C[C@H](NC(=O)c3c(F)cc(NS(=O)(=O)c4ccc(-c5ccnc(F)c5)cc4)cc3F)C(=O)O)c3cnn(C)c23)c(OC)c1` (single isomer, unassigned) [Example 147], for which the pEC50 was 9.40.

With `CCOCc1cc(OC)c(-c2ccc(C[C@@H](NC(=O)c3c(F)cc(NS(=O)(=O)c4ccc(-c5ccnc(F)c5)cc4)cc3F)C(=O)O)c3cnn(C)c23)c(OC)c1` (single isomer, unassigned) [Example 148], the pEC50 was 8.44. As for `CCOCc1cc(OC)c(-c2ccc(C[C@H](NC(=O)c3c(F)cc(NS(=O)(=O)c4ccc(-c5ccnc(F)c5)cc4)cc3F)C(=O)O)c3ccncc23)c(OC)c1` (single isomer, unassigned) [Example 161], the negative logarithm of the EC50 (pEC50) was 9.30.

On to `CCOCc1cc(OC)c(-c2ccc(C[C@@H](NC(=O)c3c(F)cc(NS(=O)(=O)c4ccc(-c5ccnc(F)c5)cc4)cc3F)C(=O)O)c3ccncc23)c(OC)c1` (single isomer, unassigned) [Example 162], for which the pEC50 was 8.77. For the compound `COc1cccc(OC)c1-c1ccc(C[C@H](NC(=O)c2c(F)cc(NS(=O)(=O)c3ccc(-n4cncn4)cc3)cc2F)C(=O)O)c2ccncc12` (single isomer, unassigned) [Example 164], the negative-log EC50 (pEC50) is 8.89.

Regarding `COc1cccc(OC)c1-c1ccc(C[C@@H](NC(=O)c2c(F)cc(NS(=O)(=O)c3ccc(-n4cncn4)cc3)cc2F)C(=O)O)c2ccncc12` (single isomer, unassigned) [Example 165], the negative-log EC50 (pEC50) was 7.42. Next, `O=C(N[C@@H](Cc1ccc(-c2c(Cl)cc(F)cc2Cl)c2cccnc12)C(=O)O)c1c(F)cccc1F` [Example 1, (S)-3-(5-(2,6-dichloro-4-fluorophenyl)quinolin-8-yl)-2-(2,6-difluorobenzamido)propanoic acid]: 6.68. With `COc1cccc(F)c1C(=O)N[C@@H](Cc1ccc(-c2c(Cl)cc(F)cc2Cl)c2cccnc12)C(=O)O` [Example 2, (S)-3-(5-(2,6-dichloro-4-fluorophenyl)quinolin-8-yl)-2-(2-fluoro-6-methoxybenzamido)propanoic acid] the figure was 6.38; with `O=C(N[C@@H](Cc1ccc(-c2c(Cl)cc(F)cc2Cl)c2cccnc12)C(=O)O)c1c(F)cc(N[C@H](c2ccccc2)C(F)(F)F)cc1F` [Example 3, (S)-3-(5-(2,6-dichloro-4-fluorophenyl)quinolin-8-yl)-2-(2,6-difluoro-4-(((R)-2,2,2-trifluoro-1-phenylethyl)amino)benzamido)propanoic acid], 6.41. With `CS(=O)(=O)Nc1cc(F)c(C(=O)N[C@@H](Cc2ccc(-c3c(Cl)cc(F)cc3Cl)c3cccnc23)C(=O)O)c(F)c1` [Example 4, (S)-3-(5-(2,6-dichloro-4-fluorophenyl)quinolin-8-yl)-2-(2,6-difluoro-4-(methylsulfonamido)benzamido)propanoic acid] the figure was 7.59. Regarding `O=C(N[C@@H](Cc1ccc(-c2c(Cl)cc(F)cc2Cl)c2cccnc12)C(=O)O)c1c(Cl)cccc1Cl` [Example 7, (S)-3-(5-(2,6-dichloro-4-fluorophenyl)quinolin-8-yl)-2-(2,6-dichlorobenzamido)propanoic acid], the pEC50 is 6.28. With `Cc1c(-c2ccc(C[C@H](NC(=O)c3c(Cl)cccc3Cl)C(=O)O)c3ncccc23)c(=O)n(C)c2ccc(F)cc12` [Example 10, (S)-2-(2,6-dichlorobenzamido)-3-(6-fluoro-1,4-dimethyl-2-oxo-1,2-dihydro-[3,5′-biquinolin]-8′-yl)propanoic acid] the figure was 8.96; with `COc1cc(F)cnc1-c1ccc(C[C@H](NC(=O)c2c(Cl)cccc2Cl)C(=O)O)c2ncccc12` [Example 13, (S)-2-(2,6-dichlorobenzamido)-3-(5-(5-fluoro-3-methoxypyridin-2-yl)quinolin-8-yl)propanoic acid], 7.17. With `O=C(N[C@@H](Cc1ccc(-c2cccc3scnc23)c2cccnc12)C(=O)O)c1c(Cl)cccc1Cl` [Example 14, (S)-3-(5-(benzo[d]thiazol-4-yl)quinolin-8-yl)-2-(2,6-dichlorobenzamido) propanoic acid] the figure was 7.24. Next, `O=C(N[C@@H](Cc1ccc(-c2nccnc2C(F)(F)F)c2cccnc12)C(=O)O)c1c(Cl)cccc1Cl` [Example 15, (S)-2-(2,6-dichlorobenzamido)-3-(5-(3-(trifluoromethyl)pyrazin-2-yl)quinolin-8-yl)propanoic acid]: 7.07; `Cc1cc(C(F)(F)F)c(-c2ccc(C[C@H](NC(=O)c3c(Cl)cccc3Cl)C(=O)O)c3ncccc23)nn1` [Example 16, (S)-2-(2,6-dichlorobenzamido)-3-(5-(6-methyl-4-(trifluoromethyl)pyridazin-3-yl)quinolin-8-yl)propanoic acid]: 6.84; `Cn1cc(-c2ccc(C[C@H](NC(=O)c3c(Cl)cccc3Cl)C(=O)O)c3ncccc23)c(C(F)(F)F)n1` [Example 17, (S)-2-(2,6-dichlorobenzamido)-3-(5-(1-methyl-3-(trifluoromethyl)-1H-pyrazol-4-yl)quinolin-8-yl)propanoic acid]: 6.45.

As for `Cc1c(-c2ccc(C[C@H](NC(=O)c3c(Cl)cccc3Cl)C(=O)O)c3ncccc23)c(C(F)(F)F)nn1C` [Example 18, (S)-2-(2,6-dichlorobenzamido)-3-(5-(1,5-dimethyl-3-(trifluoromethyl)-1H-pyrazol-4-yl)quinolin-8-yl)propanoic acid], the pEC50 was 6.38. Take `Cn1cc(F)cc(-c2ccc(C[C@H](NC(=O)c3c(Cl)cccc3Cl)C(=O)O)c3ncccc23)c1=O` [Example 19, (S)-2-(2,6-dichlorobenzamido)-3-(5-(5-fluoro-1-methyl-2-oxo-1,2-dihydropyridin-3-yl)quinolin-8-yl)propanoic acid]: the pEC50 was 7.58. With `O=C(N[C@@H](Cc1ccc(-c2cccc3c2COCC3)c2cccnc12)C(=O)O)c1c(Cl)cccc1Cl` [Example 20, (S)-2-(2,6-dichlorobenzamido)-3-(5-(isochroman-8-yl)quinolin-8-yl)propanoic acid] the figure was 6.43; with `Cn1c(=O)c(-c2ccc(C[C@H](NC(=O)c3c(Cl)cccc3Cl)C(=O)O)c3ncccc23)cc2ccccc21` [Example 21, (S)-2-(2,6-dichlorobenzamido)-3-(1-methyl-2-oxo-1,2-dihydro-[3,5′-biquinolin]-8′-yl)propanoic acid], 8.24.

The record behind these values is US11179383B2 (Gilead Sciences, Inc., priority 2018, dated 2021).
